From patent publication US20150299188A1, “HETEROCYCLIC COMPOUND” (priority 2012, published 2015)

test system: FLAP (5-lipoxygenase activating protein); experiment: In vitro binding test: displacement of [3H]-7-chloro-3-(5-((3-fluoropyridin-2-yl)methoxy)-2-methylphenyl)-3,4-dihydroquinazolin-2(1H)-one from Sf9 microsome fractions; design: species or system human and mouse; settings: Sf9 microsome fractions expressing FLAP; 100% = radioligand binding with 10 μM sodium 3-(3-(tert-butylsulfanyl)-1-(4-chlorobenzyl)-5-isopropyl-1H-indol-2-yl)-2,2-dimethylpropanoate, 0% = DMSO; test compound concentration not given
In short: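 Sf9 microsomes expressing human or mouse FLAP (2 μg/mL) preincubated with compound 10 min at room temperature, then 120 nM tritiated quinazolinone ligand added for 60 min; buffer 100 mM Tris-HCl pH 7.5 with NaCl, EDTA, DTT, glycerol, Tween20. Bound ligand filtered and counted by scintillation; 10 μM indole propanoate defines 100% inhibition, DMSO 0%.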

SMILES | inhibitory rate (%)
CC(C)(O)c1nccc2c1CN(c1cc3c(cc1Cl)CCC(c1ncccc1F)O3)C(=O)N2 (centres unmarked) [Example 84, 3-(6-chloro-2-(3-fluoropyridin-2-yl)-3,4-dihydro-2H-chromen-7-yl)-5-(2-hydroxypropan-2-yl)-3,4-dihydropyrido[4,3-d]pyrimidin-2(1H)-one] | 106
O=C1Nc2cc(-c3ncco3)nc(C3CC3)c2CN1c1cc2c(cc1Cl)CCC(c1ncccc1F)O2 (centres unmarked) [Example 85, 3-(6-chloro-2-(3-fluoropyridin-2-yl)-3,4-dihydro-2H-chromen-7-yl)-5-cyclopropyl-7-(1,3-oxazol-2-yl)-3,4-dihydropyrido[4,3-d]pyrimidin-2(1H)-one] | 102
O=C1CCCN1c1cc2c(c(C3CC3)n1)CN(c1cc3c(cc1Cl)CCC(c1ncccc1F)O3)C(=O)N2 (centres unmarked) [Example 86, 3-(6-chloro-2-(3-fluoropyridin-2-yl)-3,4-dihydro-2H-chromen-7-yl)-5-cyclopropyl-7-(2-oxopyrrolidin-1-yl)-3,4-dihydropyrido[4,3-d]pyrimidin-2(1H)-one] | 108
Cc1cc2c(cc1N1Cc3c(C(F)(F)F)ncc(Br)c3NC1=O)OC(c1ncccc1F)CC2 (centres unmarked) [Example 87, 8-bromo-3-(2-(3-fluoropyridin-2-yl)-6-methyl-3,4-dihydro-2H-chromen-7-yl)-5-(trifluoromethyl)-3,4-dihydropyrido[4,3-d]pyrimidin-2(1H)-one] | 118
Cc1cc2c(cc1N1Cc3c(F)cncc3NC1=O)OC(c1ncccc1F)CC2 (centres unmarked) [Example 88, 5-fluoro-3-(2-(3-fluoropyridin-2-yl)-6-methyl-3,4-dihydro-2H-chromen-7-yl)-3,4-dihydropyrido[3,4-d]pyrimidin-2(1H)-one] | 96
COC(=O)/C=C/c1cc2c(c(C3CC3)n1)CN(c1cc3c(cc1C)CCC(c1ncccc1F)O3)C(=O)N2 (centres unmarked) [Example 89, methyl (2E)-3-(5-cyclopropyl-3-(2-(3-fluoropyridin-2-yl)-6-methyl-3,4-dihydro-2H-chromen-7-yl)-2-oxo-1,2,3,4-tetrahydropyrido[4,3-d]pyrimidin-7-yl)acrylate] | 98
O=C1Nc2cc(C3CC3)nc(C3CC3)c2CN1c1ccc2c(c1)OC(c1ncccc1F)CC2 (centres unmarked) [Example 90, 5,7-dicyclopropyl-3-(2-(3-fluoropyridin-2-yl)-3,4-dihydro-2H-chromen-7-yl)-3,4-dihydropyrido[4,3-d]pyrimidin-2(1H)-one] | 118
Cc1cc2c(cc1N1Cc3c(cc(/C=C/C(=O)O)nc3C3CC3)NC1=O)OC(c1ncccc1F)CC2 (centres unmarked) [Example 91, (2E)-3-(5-cyclopropyl-3-(2-(3-fluoropyridin-2-yl)-6-methyl-3,4-dihydro-2H-chromen-7-yl)-2-oxo-1,2,3,4-tetrahydropyrido[4,3-d]pyrimidin-7-yl)acrylic acid] | 109
Cc1cc2c(cc1N1Cc3c(C(F)(F)F)ncc(/C=C/C(=O)O)c3NC1=O)OC(c1ncccc1F)CC2 (centres unmarked) [Example 92, (2E)-3-(3-(2-(3-fluoropyridin-2-yl)-6-methyl-3,4-dihydro-2H-chromen-7-yl)-2-oxo-5-(trifluoromethyl)-1,2,3,4-tetrahydropyrido[4,3-d]pyrimidine-8-yl)acrylic acid] | 106
Cc1cc2c(cc1N1Cc3c(cc(-c4ccnn4C)nc3C3CC3)NC1=O)OC(c1ncccc1F)CC2 (centres unmarked) [Example 93, 5-cyclopropyl-3-(2-(3-fluoropyridin-2-yl)-6-methyl-3,4-dihydro-2H-chromen-7-yl)-7-(1-methyl-1H-pyrazol-5-yl)-3,4-dihydropyrido[4,3-d]pyrimidin-2(1H)-one] | 112
Cc1cc2c(cc1N1Cc3c(cc(CCC(=O)O)nc3C3CC3)NC1=O)OC(c1ncccc1F)CC2 (centres unmarked) [Example 94, 3-(5-cyclopropyl-3-(2-(3-fluoropyridin-2-yl)-6-methyl-3,4-dihydro-2H-chromen-7-yl)-2-oxo-1,2,3,4-tetrahydropyrido[4,3-d]pyrimidin-7-yl)propanoic acid] | 104
NC(=O)c1cc2c(c(C3CC3)n1)CN(c1cc3c(cc1Cl)CCC(c1ncccc1F)O3)C(=O)N2 (centres unmarked) [Example 95, 3-(6-chloro-2-(3-fluoropyridin-2-yl)-3,4-dihydro-2H-chromen-7-yl)-5-cyclopropyl-2-oxo-1,2,3,4-tetrahydropyrido[4,3-d]pyrimidine-7-carboxamide] | 89
CCc1cc2c(c(C3CC3)n1)CN(c1cc3c(cc1C)CCC(c1ncccc1F)O3)C(=O)N2 (centres unmarked) [Example 96, 5-cyclopropyl-7-ethyl-3-(2-(3-fluoropyridin-2-yl)-6-methyl-3,4-dihydro-2H-chromen-7-yl)-3,4-dihydropyrido[4,3-d]pyrimidin-2(1H)-one] | 84
COCCNC(=O)c1cc2c(c(C3CC3)n1)CN(c1cc3c(cc1Cl)CCC(c1ncccc1F)O3)C(=O)N2 (centres unmarked) [Example 97, 3-(6-chloro-2-(3-fluoropyridin-2-yl)-3,4-dihydro-2H-chromen-7-yl)-5-cyclopropyl-N-(2-methoxyethyl)-2-oxo-1,2,3,4-tetrahydropyrido[4,3-d]pyrimidine-7-carboxamide] | 90
O=C(NC1COC1)c1cc2c(c(C3CC3)n1)CN(c1cc3c(cc1Cl)CCC(c1ncccc1F)O3)C(=O)N2 (centres unmarked) [Example 98, 3-(6-chloro-2-(3-fluoropyridin-2-yl)-3,4-dihydro-2H-chromen-7-yl)-5-cyclopropyl-N-(oxetan-3-yl)-2-oxo-1,2,3,4-tetrahydropyrido[4,3-d]pyrimidine-7-carboxamide] | 94
CNC(=O)c1cc2c(c(C3CC3)n1)CN(c1cc3c(cc1Cl)CCC(c1ncccc1F)O3)C(=O)N2 (centres unmarked) [Example 99, 3-(6-chloro-2-(3-fluoropyridin-2-yl)-3,4-dihydro-2H-chromen-7-yl)-5-cyclopropyl-N-methyl-2-oxo-1,2,3,4-tetrahydropyrido[4,3-d]pyrimidine-7-carboxamide] | 94
Cn1cc(-c2cc3c(c(C4CC4)n2)CN(c2cc4c(cc2Cl)CCC(c2ncccc2F)O4)C(=O)N3)cn1 (centres unmarked) [Example 100, 3-(6-chloro-2-(3-fluoropyridin-2-yl)-3,4-dihydro-2H-chromen-7-yl)-5-cyclopropyl-7-(1-methyl-1H-pyrazol-4-yl)-3,4-dihydropyrido[4,3-d]pyrimidin-2(1H)-one] | 100
O=C(NCCO)c1cc2c(c(C3CC3)n1)CN(c1cc3c(cc1Cl)CCC(c1ncccc1F)O3)C(=O)N2 (centres unmarked) [Example 101, 3-(6-chloro-2-(3-fluoropyridin-2-yl)-3,4-dihydro-2H-chromen-7-yl)-5-cyclopropyl-N-(2-hydroxyethyl)-2-oxo-1,2,3,4-tetrahydropyrido[4,3-d]pyrimidine-7-carboxamide] | 96
Cn1cc(-c2ncc(Cl)c3c2NC(=O)N(c2cc4c(cc2Cl)CCC(c2ncccc2F)O4)C3)cn1 (centres unmarked) [Example 102, 5-chloro-3-(6-chloro-2-(3-fluoropyridin-2-yl)-3,4-dihydro-2H-chromen-7-yl)-8-(1-methyl-1H-pyrazol-4-yl)-3,4-dihydropyrido[3,4-d]pyrimidin-2(1H)-one] | 101
O=C1Nc2cc(-c3noc(=O)[nH]3)nc(C3CC3)c2CN1c1cc2c(cc1Cl)CCC(c1ncccc1F)O2 (centres unmarked) [Example 103, 3-(6-chloro-2-(3-fluoropyridin-2-yl)-3,4-dihydro-2H-chromen-7-yl)-5-cyclopropyl-7-(5-oxo-4,5-dihydro-1,2,4-oxadiazol-3-yl)-3,4-dihydropyrido[4,3-d]pyrimidin-2(1H)-one] | 94
Cc1cc2c(cc1N1Cc3c(cc(C4CC4)nc3-c3ccnn3C)NC1=O)OC(c1ncccc1F)CC2 (centres unmarked) [Example 104, 7-cyclopropyl-3-(2-(3-fluoropyridin-2-yl)-6-methyl-3,4-dihydro-2H-chromen-7-yl)-5-(1-methyl-1H-pyrazol-5-yl)-3,4-dihydropyrido[4,3-d]pyrimidin-2(1H)-one] | 91
O=C1Nc2cc(N3CCCS3(=O)=O)nc(C3CC3)c2CN1c1cc2c(cc1Cl)CCC(c1ncccc1F)O2 (centres unmarked) [Example 106, 3-(6-chloro-2-(3-fluoropyridin-2-yl)-3,4-dihydro-2H-chromen-7-yl)-5-cyclopropyl-7-(1,1-dioxido-1,2-thiazolidin-2-yl)-3,4-dihydropyrido[4,3-d]pyrimidin-2(1H)-one] | 94
COc1ncc(C(F)(F)F)c2c1NC(=O)N(c1cc3c(cc1C)CCC(c1ncccc1F)O3)C2 (centres unmarked) [Example 107, 3-(2-(3-fluoropyridin-2-yl)-6-methyl-3,4-dihydro-2H-chromen-7-yl)-8-methoxy-5-(trifluoromethyl)-3,4-dihydropyrido[3,4-d]pyrimidin-2(1H)-one] | 93
COc1ncc(C(F)(F)F)c2c1NC(=O)N(c1cc3c(cc1Cl)CCC(c1ncccc1F)O3)C2 (centres unmarked) [Example 108, 3-(6-chloro-2-(3-fluoropyridin-2-yl)-3,4-dihydro-2H-chromen-7-yl)-8-methoxy-5-(trifluoromethyl)-3,4-dihydropyrido[3,4-d]pyrimidin-2(1H)-one] | 104
O=C1Nc2c(N3CCC(O)CC3)ncc(Cl)c2CN1c1cc2c(cc1Cl)CCC(c1ncccc1F)O2 (centres unmarked) [Example 109, 5-chloro-3-(6-chloro-2-(3-fluoropyridin-2-yl)-3,4-dihydro-2H-chromen-7-yl)-8-(4-hydroxypiperidin-1-yl)-3,4-dihydropyrido[3,4-d]pyrimidin-2(1H)-one] | 106
COCCOc1cnc(C(F)(F)F)c2c1NC(=O)N(c1cc3c(cc1C)CCC(c1ncccc1F)O3)C2 (centres unmarked) [Example 110, 3-(2-(3-fluoropyridin-2-yl)-6-methyl-3,4-dihydro-2H-chromen-7-yl)-8-(2-methoxyethoxy)-5-(trifluoromethyl)-3,4-dihydropyrido[4,3-d]pyrimidin-2(1H)-one] | 99
